Results from patent US20260184759A1, “CHIMERIC ANTIGEN RECEPTORS SPECIFIC FOR CONJUGATED BIOTIN” (Seattle Children's Hospital (dba Seattle Children's …, priority 2022, published 2026).

Tests used:
[1] = test system: anti-conjugated biotin CARs; assay: Competition assay against biotin-PEG-Cy5 binding (flow cytometry); set-up: species or system human; settings: 440 nM biotin-PEG-Cy5 with 0.2, 1, 5 or 20 nM competitor, 30 minutes, room temperature
Method: First, cells expressing various CARs were incubated with 440 nM of biotin-PEG-Cy5 (FIG. 6) for 30 minutes at room temperature. Concurrently, they were exposed to 0 nM (no competition), 0.2 nM, 1 nM, 5 nM, or 20 nM of either unconjugated biotin or a non-fluorescent conjugated biotin (FIG. 7A).
One differentiating factor for this CAR when compared with other biotin-binding receptors previously described^28,29,31 is that the CAR may bind any biotin derivative but not the unmodified molecule itself (FIG. 2B). To confirm this selective binding to biotin conjugates, the panel of CAR T cells was incubated with 440 nM of a biotin-PEG-Cy5 conjugate, and titrated doses (20 nM, 5 nM, 1 nM, and 0.2 nM) of competition were incubated concurrently with the soluble antigen. Competition included another conjugated biotin, biotin-PEG2k-folate (FIG. 7A), and unmodified biotin (FIG. 7B).
To confirm anti-biotin CAR T cell binding to conjugated biotin, 440 nM of a 1.1 kDa biotin-PEG-Cy5 (Click Chemistry Tools) conjugate was incubated with the cells for 30 min at room temperature. For the competition assay, 0.2 nM, 1 nM, 5 nM, or 20 nM of either 2 kDa biotin-folate (NanoCS) or unconjugated biotin (Sigma-Adrich) were incubated concurrently with the cells and biotin-PEG-Cy5. Cells were washed and fixed in a 0.5% paraformaldehyde solution. […]

[2] = test system: anti-conjugated biotin CAR T cells; assay: ICCS assay with unconjugated biotin added to the co-incubation; type: cell-based, human; settings: 0 ng, 100 ng, 500 ng, 2 ug unconjugated biotin during 4-hour co-incubation with labelled targets
Method: Additionally, unconjugated biotin was added to co-incubating cells for the entire 4-hour co-incubation to determine whether unconjugated biotin can block anti-conjugated biotin binding to target cells. Unconjugated biotin was added at 4 different doses: 0 ng (no competition), 100 ng, 500 ng, and 2 ug. […] The cells were then assessed for production of the intracellular cytokines IFN, IL2, and TNF.
Cytokine expression and activation/exhaustion markers of anti-biotin CAR T cells stimulated with targets cells were examined by ICCS. Target cells were labeled with appropriate intermediate adaptors and washed. T cells were then co-incubated with labeled and unlabeled target cells at an E:T ratio of 1:1 for 4 hours in the presence of Protein Transport Inhibitor (ThermoFisher Scientific) to block cytokine secretion. Cells were incubated in the appropriate medium for each target line. 100× Cell Stimulation Cocktail (ThermoFisher Scientific) was used as a positive control. An anti-CD107a BV711 antibody (BioLegend) was also included with the cells during the incubation. Cells were then labeled for dead cells using FVS520 live/dead stain (BD Horizon), washed, and subsequently FcR Blocked (Miltenyi Biotec). Surface markers were then stained using anti-CD4 PacBlue(BioLegend), anti-CD8 PerCP/Cy5.5 (Biolegend), and erbitux-APC (BD Biosciences). […]

## O=C(O)CCCC[C@@H]1SC[C@@H]2NC(=O)N[C@@H]21 [unconjugated biotin, biotin]
[1]
  MFI of biotin-PEG-Cy5 binding under competition: not negatively impacted in their ability to bind biotin conjugated to fluorescent Cy5
[1]; listed as unmodified biotin
  MFI of biotin-PEG-Cy5 binding under competition: no decrease in MFI
[2]
  impact of unconjugated biotin on activation markers (CD8+ CAR T cells): no impact on the activation profiles of the CAR T cells
  impact of unconjugated biotin on intracellular cytokines (CD4+ CAR T cells): no impact on the activation profiles of the CAR T cells
